Assay: gradient 5% acetonitrile 3 min, to 50% in 2 min, to 85% in 15 min, held 3 min, 100 µL/min
Settings: column: Zorbax Extend-C18 2.1 x 50 mm; eluents: water / acetonitrile, 0.1% formic acid
Method in brief: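 Mixtures of ~100 pure standards were chromatographed on a Zorbax Extend-C18 column (2.1 × 50 mm, 1.8 μm) at 100 μL/min using water and acetonitrile, each with 0.1% formic acid. Detection used a quadrupole time-of-flight mass spectrometer in positive and negative ionization mode, and data collection spanned 3 months. Retention time was obtained from adduct peaks picked computationally and each checked manually.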

Row | RP-LC retention time [s] | Structure (SMILES)
1 | 615 | Cc1cnc(C2CC2)n1CCNS(=O)(=O)c1cc(F)cc(F)c1
2 | 737 | Cc1noc(/C=C\c2ccc(S(=O)(=O)NCC3CCCO3)cc2)c1NC(=O)C1CC1 (configuration not stated)
3 | 852 | CSc1cccc(NC(=O)N2CCC(C)(C(=O)NCc3ccccc3)CC2)c1
4 | 632 | CCc1ccccc1S(=O)(=O)N1CCN(c2nc3ccncc3n(C(C)C)c2=O)CC1
5 | 688 | O=C(Nc1ccc(F)cc1)Nc1ccc2nc3n(c(=O)c2c1)CCC3
6 | 1050 | CCn1cc2c3c(cccc31)CN(C(=O)CCc1ccccc1)CC2
7 | 746 | COC[C@@H]1CN(S(=O)(=O)c2ccc(C#N)cc2)C[C@H]1c1ccccn1
8 | 694 | CCc1ccc(-c2cc3c(=O)n(Cc4noc(CN5CCCC5)n4)ccn3n2)cc1
9 | 1110 | CCOc1ccc(NC(=O)c2cn(-c3cc(N4CCCCC4C)ncn3)cn2)cc1 (configuration not stated)
10 | 616 | CCC1CN(C(=O)N2CCC(C(=O)NCCN3CCN(CC)CC3)CC2)c2cc(C)ccc2O1 (configuration not stated)
11 | 643 | CCN1CCC2(CC1)OC(=O)C(C)=C2C(=O)NCc1ccc(Cl)cc1
12 | 680 | O=C(NCc1ccccc1F)C1CCN(c2cc(N3CCCCC3)ncn2)CC1
13 | 618 | O=C(NCc1ccc(N2CCOCC2)nc1)c1ccc(Cl)s1
14 | 624 | CCOc1ccc(NC(=O)Cn2ncc3c(N4CCN(c5ccccn5)CC4)ncnc32)cc1
15 | 1100 | Cc1nn(-c2ccccc2)c(C)c1S(=O)(=O)N1CCC(C(=O)Nc2ccc(C(C)C)cc2)CC1
16 | 785 | Fc1ccccc1-c1nc(-c2ccc3nncn3c2)no1
17 | 969 | Cc1cc(C)n(-c2ccc(C(=O)N3CCN(c4ccc(F)c(Cl)c4)CC3)nn2)n1
18 | 770 | O=C(NCc1ccccc1F)c1ccc(CN2CCN(Cc3ccccc3)C(=O)C2=O)cc1
19 | 804 | Cc1ccccc1C(=O)CC1(O)C(=O)Nc2ccc(Br)cc21 (configuration not stated)
20 | 693 | CCCCC(=O)N1CCN(c2cc(C)nc(Nc3ccc(C)cc3)n2)CC1
21 | 892 | O=C(NCc1csc(-c2cccs2)n1)C1CCN(S(=O)(=O)c2ccc(F)cc2)CC1
22 | 619 | COCC1CN(Cc2cn[nH]c2-c2ccc(F)cc2)CCC1(F)F (configuration not stated)

Row | RP-LC retention time [s] | Structure (SMILES)
23 | 635 | Cc1ccc(F)c2c(=O)c3c([nH]c12)CCN(CC(=O)Nc1ccc(F)c(F)c1)C3
24 | 682 | CSc1cccc(NC(=O)CSc2ccc(N3CCCC(C(=O)NC4CC4)C3)nn2)c1 (configuration not stated)
25 | 916 | Cc1noc(C)c1-c1ccc(S(=O)(=O)Nc2cccc(F)c2)cc1
26 | 924 | CCOC(=O)COc1cc(-c2ccc(F)cc2)nc2ccc(NC(=O)COc3ccccc3)cc12
27 | 639 | CC(=O)N1CCc2nn(CC(=O)N3CCc4ccccc43)c(=O)cc2C1
28 | 616 | CCn1c(CCNC(=O)c2cccc(F)c2)nc2cccnc21
29 | 588 | C=CCc1ccccc1OCC(O)CN1CCC(C)CC1 (configuration not stated)
30 | 1090 | Cc1ccccc1-c1noc(-c2nc(-c3ccncc3)no2)n1
31 | 564 | CC(NC(=O)c1c(O)c2sccc2[nH]c1=O)c1ccncc1 (configuration not stated)
32 | 834 | O=C(C1CCOC1)N1CCC(CCOc2cccc(F)c2)CC1 (configuration not stated)
33 | 917 | CCn1c(=O)sc2cc(S(=O)(=O)N3CCC(C(=O)Nc4ccccc4OC)CC3)ccc21
34 | 610 | CCN1C(=O)Cc2ccccc2C1C(=O)NCCOC (configuration not stated)
35 | 540 | CNC(=O)[C@@H]1C[C@H](Oc2cccnc2)CN1C(=O)C1CCC1
36 | 1030 | O=C1CC(c2nc(-c3ccc4c(c3)OCO4)no2)CN1c1ccc(Cl)cc1 (configuration not stated)
37 | 943 | O=C(NCC1CCCO1)c1cccn1Cc1noc(-c2ccc(Cl)cc2)n1 (configuration not stated)
38 | 726 | O=C(NC1CCCC1)NC1CCN(c2ccccc2)C1=O (configuration not stated)
39 | 726 | CN1C(=O)CSc2cnn(CC(=O)N3CCCc4ccccc43)c(=O)c21
40 | 671 | CC(C)CC(=O)Nc1ccc(N2CCCC(C)C2)cc1C(=O)O (configuration not stated)
41 | 788 | CCCCOc1ccc(NC(=O)N(Cc2ccccn2)Cc2ccco2)cc1
42 | 862 | COc1cc(F)ccc1-c1ccnc2nc(CC(C)C)nn12
43 | 1080 | CN(C)N1C(=O)c2c(Cl)c(Cl)c(Cl)c(Cl)c2C1=O
44 | 765 | CC1=C(c2ccc(Cl)cc2)S(=O)(=O)N=C1N1CCCN(C(=O)c2ccccn2)CC1

Row | RP-LC retention time [s] | Structure (SMILES)
45 | 622 | CCN(CC)CCNC(=O)CSc1cc(=O)n(C)c2cc(Cl)ccc12
46 | 723 | O=c1ccc(S(=O)(=O)N2CCOCC2)cn1Cc1ccccc1F
47 | 757 | CCc1c(C(=O)O)nnn1-c1cccc(Br)c1
48 | 757 | Cn1nnnc1C1CCCN(S(=O)(=O)Cc2ccccc2F)C1 (configuration not stated)
49 | 600 | COc1ccc(-n2c(=O)n(C)c(=O)c3cc(C(=O)NCc4ccccn4)cnc32)cc1
50 | 903 | Cc1ccc(N2C(=O)CN(S(C)(=O)=O)CC2(C)C(=O)NCc2ccc(Cl)cc2)c(C)c1 (configuration not stated)
51 | 881 | O=C(Nc1ccc(F)cc1F)N1CCc2nc(-c3ccccc3)ncc2C1
52 | 947 | Cc1ccc(CNC(=O)Cn2c(C)cc(-c3nnc(C4CCC4)o3)c2C)cc1C
53 | 954 | CC(=O)c1ccc(NS(C)(=O)=O)c(Oc2ccc(F)cc2F)c1
54 | 933 | COc1ccc(NC(=O)c2cc(C)n3nc(-c4ccco4)cc3n2)cc1OC
55 | 856 | CC(C)NC(=O)CCn1c(=O)c2cc(Cl)ccc2n2c(=O)n(Cc3ccccc3)nc12
56 | 1180 | Cc1nc2cc(-c3noc(-c4ccc(Br)cc4)n3)ccc2n(C)c1=O
57 | 874 | COc1ccc2[nH]cc(CCNC(=O)CCC3CCCCC3)c2c1
58 | 766 | O=C(C1CC(=O)N(c2n[nH]c3ccccc23)C1)N1CCC(c2noc3cc(F)ccc23)CC1 (configuration not stated)
59 | 839 | Cc1noc(C)c1Cc1ccc(C(=O)N2CCCCCCNC(=O)[C@@H]3CCCC[C@@H]32)o1
60 | 1070 | COc1ccc(-c2csc(Nc3ccccc3)n2)cc1
61 | 797 | O=C(NCC1CCCO1)c1nnc(-c2ccc(S(=O)(=O)N3CCCCC3)cc2)o1 (configuration not stated)
62 | 824 | COc1ccc(N(Cc2nc3nc(C)c(Cl)c(C)n3n2)C(=O)c2ccco2)cc1
63 | 666 | Cc1cc(NC(=O)Cn2ccn3nc(-c4ccc(F)cc4)c(CO)c3c2=O)n[nH]1
64 | 729 | O=C(CSc1ccc(N2CCCC(C(=O)NC3CC3)C2)nn1)Nc1ccc(C(F)(F)F)cc1 (configuration not stated)
65 | 1190 | CCOc1ccc(S(=O)(=O)N2CCC(c3noc(-c4cccc(F)c4)n3)CC2)cc1

Row | Structure (SMILES) | RP-LC retention time [s]
66 | CN(C)C(=O)Oc1ccc2c(c1)O/C(=C\C=C\c1ccccc1)C2=O | 1060
67 | COc1ccc2c(c1)C1(CCN(S(=O)(=O)c3ccc(F)cc3F)C1)C(=O)N2 (configuration not stated) | 841

Reference: the METLIN SMRT retention time set (Domingo-Almenara et al. 2019)
